Structures are written as SMILES.

In the assay the target is T1, HEK cells stably transfected with tetracycline inducible hNR1 and hNR2A (Homo sapiens, UniProt Q05586+Q12879).
T1 construct: expressed in transfected cells; host or cells: HEK cells, stably transfected, tetracycline/doxycycline inducible
T1 sequence (Q12879 23-1464, other chains not shown): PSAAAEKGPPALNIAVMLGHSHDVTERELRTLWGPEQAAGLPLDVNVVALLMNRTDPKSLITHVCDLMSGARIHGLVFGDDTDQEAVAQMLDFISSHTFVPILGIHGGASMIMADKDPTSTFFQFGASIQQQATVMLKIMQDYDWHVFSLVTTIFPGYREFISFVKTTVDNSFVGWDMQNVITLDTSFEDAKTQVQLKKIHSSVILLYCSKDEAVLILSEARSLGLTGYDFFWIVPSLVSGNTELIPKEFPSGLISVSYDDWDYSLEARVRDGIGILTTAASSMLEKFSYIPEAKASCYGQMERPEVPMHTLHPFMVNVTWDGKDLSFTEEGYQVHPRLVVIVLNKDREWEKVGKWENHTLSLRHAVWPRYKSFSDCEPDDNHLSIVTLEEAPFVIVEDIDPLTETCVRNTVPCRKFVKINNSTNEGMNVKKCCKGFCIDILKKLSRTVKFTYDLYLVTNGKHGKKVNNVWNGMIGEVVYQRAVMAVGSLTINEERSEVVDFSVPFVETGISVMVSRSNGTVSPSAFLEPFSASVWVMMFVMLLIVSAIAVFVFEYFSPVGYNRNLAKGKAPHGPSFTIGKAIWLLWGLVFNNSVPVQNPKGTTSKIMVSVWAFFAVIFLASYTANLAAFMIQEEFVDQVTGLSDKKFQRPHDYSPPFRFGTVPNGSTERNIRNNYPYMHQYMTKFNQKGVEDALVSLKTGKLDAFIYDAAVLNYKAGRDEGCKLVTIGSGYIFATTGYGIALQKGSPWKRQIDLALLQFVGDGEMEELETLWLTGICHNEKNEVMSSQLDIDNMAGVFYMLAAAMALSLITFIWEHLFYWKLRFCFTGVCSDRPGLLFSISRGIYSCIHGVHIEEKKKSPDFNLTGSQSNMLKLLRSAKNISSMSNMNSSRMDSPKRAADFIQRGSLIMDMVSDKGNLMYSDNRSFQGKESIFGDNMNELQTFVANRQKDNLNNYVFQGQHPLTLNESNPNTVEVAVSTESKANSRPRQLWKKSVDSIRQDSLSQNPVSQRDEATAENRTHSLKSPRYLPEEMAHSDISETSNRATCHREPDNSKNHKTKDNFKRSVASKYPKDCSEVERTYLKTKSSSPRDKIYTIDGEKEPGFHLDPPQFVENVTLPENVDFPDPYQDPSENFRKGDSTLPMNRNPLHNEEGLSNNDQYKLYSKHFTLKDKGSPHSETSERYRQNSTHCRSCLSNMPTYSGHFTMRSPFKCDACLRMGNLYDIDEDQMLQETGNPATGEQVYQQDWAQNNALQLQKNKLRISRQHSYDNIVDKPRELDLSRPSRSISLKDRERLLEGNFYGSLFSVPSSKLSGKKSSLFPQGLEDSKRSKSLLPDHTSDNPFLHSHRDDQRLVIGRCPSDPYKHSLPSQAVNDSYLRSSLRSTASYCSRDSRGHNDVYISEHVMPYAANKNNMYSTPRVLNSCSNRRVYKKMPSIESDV
The experiment in a line: Assay 1: Cell-Based Assay, cytosolic calcium response to positive allosteric modulators (with 30 μM glycine and 300 nM L-glutamate, EC30). As to conditions: Table 3; cytosolic calcium response, with 30 μM glycine and 300 nM L-glutamate (EC30); — = no plateau was reached. Put shortly: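 Cells induced 24 h with 7.5 μg mL^−1 doxycycline plus 500 μM (+)-ketamine, loaded 60 min at 37 °C with calcium dye in Mg-free HBSS (1.8 mM Ca, probenecid, 10 μM (+)-ketamine, pH 7.15). Peak RFU over 5 min after compound addition, scaled to 100 μM L-glutamate (100%) and 0 μM (0%); four-parameter Hill fit for EC50, max % if no plateau.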
`CCNC(=O)c1c(C(C)=O)sc2nc(Cn3nc(C(F)(F)F)cc3Cl)cc(=O)n12` [compound 237, 2-acetyl-7-[[5-chloro-3-(trifluoromethyl)pyrazol-1-yl]methyl]-N-ethyl-5-oxo-thiazolo[3,2-a]pyrimidine-3-carboxamide]: the EC50 was determined as 0.889 µM. For `CCNC(=O)c1c(C(C)=O)sc2nc(Cn3nc(Cl)cc3C(F)(F)F)cc(=O)n12` [compound 238, 2-acetyl-7-[[3-chloro-5-(trifluoromethyl)pyrazol-1-yl]methyl]-N-ethyl-5-oxo-thiazolo[3,2-a]pyrimidine-3-carboxamide], the EC50 came to 2.32 µM.

On to `O=c1cc(Cn2nc(C(F)(F)F)cc2Cl)nc2scc(C(F)(F)F)n12` [compound 239, 7-[[5-chloro-3-(trifluoromethyl)pyrazol-1-yl]methyl]-3-(trifluoromethyl)thiazolo[3,2-a]pyrimidin-5-one], for which the concentration giving a half-maximal response (EC50) amounted to 14.2 µM. For `Cc1sc2nc(Cc3cccc(C(F)(F)F)c3F)cc(=O)n2c1-c1ncn[nH]1` [compound 240, 7-[[2-Fluoro-3-(trifluoromethyl)phenyl]methyl]-2-methyl-3-(1H-1,2,4-triazol-5-yl)thiazolo[3,2-a]pyrimidin-5-one] the value was 37.1 µM; for `N#CC1CC1c1csc2nc(Cn3nc(C(F)(F)F)cc3Cl)cc(=O)n12` (stereo not drawn) [compound 241, 2-[7-[[5-chloro-3-(trifluoromethyl)pyrazol-1-yl]methyl]-5-oxo-thiazolo[3,2-a]pyrimidin-3-yl]cyclopropanecarbonitrile], 0.313 µM.

For the compound `CC(=O)c1csc2nc(Cn3nc(C(F)(F)F)cc3Cl)cc(=O)n12` [compound 242, 3-acetyl-7-[[5-chloro-3-(trifluoromethyl)pyrazol-1-yl]methyl]thiazolo[3,2-a]pyrimidin-5-one], the EC50 is 11.4 µM. Regarding `O=c1cc(Cn2nc(C(F)(F)F)cc2Cl)nc2sc(C(F)(F)F)c(OCC(F)(F)F)n12` [compound 243, 7-[[5-chloro-3-(trifluoromethyl)pyrazol-1-yl]methyl]-3-(2,2,2-trifluoroethoxy)-2-(trifluoromethyl)thiazolo[3,2-a]pyrimidin-5-one], the EC50 is 0.864 µM. As for `COc1sc2nc(Cn3nc(C(F)(F)F)cc3Cl)cc(=O)n2c1C(C)=O` [compound 244, 3-Acetyl-7-[[5-chloro-3-(trifluoromethyl)pyrazol-1-yl]methyl]-2-methoxy-thiazolo[3,2-a]pyrimidin-5-one], the EC50 amounted to 0.392 µM. For the compound `COc1sc2nc(Cn3nc(Cl)cc3C(F)(F)F)cc(=O)n2c1C(C)=O` [compound 245, 3-acetyl-7-[[3-chloro-5-(trifluoromethyl)pyrazol-1-yl]methyl]-2-methoxy-thiazolo[3,2-a]pyrimidin-5-one], the EC50 came to 0.409 µM. For `Cc1sc2nc(Cn3nc([N+](=O)[O-])cc3Cl)cc(=O)n2c1Br` [compound 246, 3-bromo-7-[(5-chloro-3-nitro-pyrazol-1-yl)methyl]-2-methyl-thiazolo[3,2-a]pyrimidin-5-one], the EC50 is 0.0999 µM.

For the compound `O=c1cc(Cn2nc(C(F)(F)F)cc2Cl)nc2sc(C(F)(F)F)c(-c3ccn[nH]3)n12` [compound 247, 7-[[5-chloro-3-(trifluoromethyl)pyrazol-1-yl]methyl]-3-(1H-pyrazol-5-yl)-2-(trifluoromethyl)thiazolo[3,2-a]pyrimidin-5-one], the concentration giving a half-maximal response (EC50) worked out at 7.7 µM. Turning to `O=c1cc(Cn2nc(C(F)(F)F)cc2Cl)nc2sc(C(F)(F)F)c(-c3cscn3)n12` [compound 248, 7-[[5-chloro-3-(trifluoromethyl)pyrazol-1-yl]methyl]-3-thiazol-4-yl-2-(trifluoromethyl)thiazolo[3,2-a]pyrimidin-5-one], the EC50 was 1.45 µM.

Regarding `O=c1cc(Cn2nc(C(F)(F)F)cc2Cl)nc2sc(C(F)(F)F)c(-c3cncc(F)c3)n12` [compound 249, 7-[[5-chloro-3-(trifluoromethyl)pyrazol-1-yl]methyl]-3-(5-fluoro-3-pyridyl)-2-(trifluoromethyl)thiazolo[3,2-a]pyrimidin-5-one], the EC50 was found to be 6.33 µM.

Take `CCC(=O)c1c(C(F)(F)F)sc2nc(Cn3nc(C(F)(F)F)cc3Cl)cc(=O)n12` [compound 250, 7-[[5-Chloro-3-(trifluoromethyl)pyrazol-1-yl]methyl]-3-propanoyl-2-(trifluoromethyl)thiazolo[3,2-a]pyrimidin-5-one]: the half-maximal effective concentration (EC50) was found to be 13.8 µM. Consider `Cc1sc2nc(Cn3nc(Cl)cc3Cl)cc(=O)n2c1C1CC1C#N` (stereo not drawn) [compound 251], for which the EC50 is 0.42 µM. Take `Cc1sc2nc(Cn3nc(Cl)cc3C(F)(F)F)cc(=O)n2c1C(C)C#N` (stereo not drawn) [compound 252, 2-[7-[[3-chloro-5-(trifluoromethyl)pyrazol-1-yl]methyl]-2-methyl-5-oxo-thiazolo[3,2-a]pyrimidin-3-yl]propanenitrile]: the EC50 amounted to 5.76 µM. `CC1CC1c1c(C(F)(F)F)sc2nc(Cc3cccc(C#N)c3F)cc(=O)n12` (stereo not drawn) [compound 253, 2-fluoro-3-[[3-[2-methylcyclopropyl]-5-oxo-2-(trifluoromethyl)thiazolo[3,2-a]pyrimidin-7-yl]methyl]benzonitrile]: the EC50 came to 9.95 µM. Regarding `O=c1cc(Cn2nc(C(F)(F)F)cc2Cl)nc2sc(C(F)(F)F)c(N3CC(F)C3)n12` [compound 254, 7-[[5-chloro-3-(trifluoromethyl)pyrazol-1-yl]methyl]-3-(3-fluoroazetidin-1-yl)-2-(trifluoromethyl)thiazolo[3,2-a]pyrimidin-5-one], the EC50 stood at 1.37 µM.

With `O=c1cc(Cn2nc(C(F)(F)F)cc2Cl)nc2sc(C(F)(F)F)c(-c3cncc(Cl)c3)n12` [compound 255, 3-(5-chloro-3-pyridyl)-7-[[5-chloro-3-(trifluoromethyl)pyrazol-1-yl]methyl]-2-(trifluoromethyl)thiazolo[3,2-a]pyrimidin-5-one], the EC50 came to 7.86 µM. With `CCNC(=O)c1c(C(F)(F)F)sc2nc(Cn3nc(Cl)cc3Cl)cc(=O)n12` [compound 256, 7-[(3,5-dichloropyrazol-1-yl)methyl]-N-ethyl-5-oxo-2-(trifluoromethyl)thiazolo[3,2-a]pyrimidine-3-carboxamide], the EC50 came out at 0.611 µM.

As to `CC(=O)c1c(C(F)(F)F)sc2nc(Cc3cccc(C#N)c3F)cc(=O)n12` [compound 257, 3-[[3-acetyl-5-oxo-2-(trifluoromethyl)thiazolo[3,2-a]pyrimidin-7-yl]methyl]-2-fluoro-benzonitrile], the EC50 worked out at 20.5 µM.

For `CCNC(=O)c1c(C(F)F)sc2nc(Cn3nc(C(F)(F)F)cc3Cl)cc(=O)n12` [compound 258, 7-[[5-Chloro-3-(trifluoromethyl)pyrazol-1-yl]methyl]-2-(difluoromethyl)-N-ethyl-5-oxo-thiazolo[3,2-a]pyrimidine-3-carboxamide], the EC50 was found to be 0.227 µM. Under `CCNC(=O)c1c(C(F)F)sc2nc(Cn3nc(Cl)cc3C(F)(F)F)cc(=O)n12` [compound 259, 7-[[3-chloro-5-(trifluoromethyl)pyrazol-1-yl]methyl]-2-(difluoromethyl)-N-ethyl-5-oxo-thiazolo[3,2-a]pyrimidine-3-carboxamide] stands 0.749 µM; under `CCN(Cc1cc(=O)n2c(/C=C\C#N)c(C)sc2n1)c1ccc(F)cc1` [compound 260, (Z)-3-[7-[(N-ethyl-4-fluoro-anilino)methyl]-2-methyl-5-oxo-thiazolo[3,2-a]pyrimidin-3-yl]prop-2-enenitrile], 2.45 µM.

Broadly, the EC50 is the midpoint of the concentration-response curve.

For the origin of these results see US9988400B2 (Genentech, Inc., priority 2013, dated 2018).
